{"source": "ChEMBL document CHEMBL5614385", "about": "“A peptide-salinomycin conjugate with a bystander effect reduces the stemness characteristics of ovarian cancer cells and enhances drug sensitivity” (Eur J Med Chem, 2024)", "key": {"SK-OV-3 [1]": {"system": "SK-OV-3", "test": "Inhibition of cell migration in human SK-OV-3 cells at 5 uM incubated for 24 hrs by microscope based wound healing assay", "format": "functional"}, "SK-OV-3/CDDP": {"system": "SK-OV-3/CDDP", "test": "Cytotoxicity against human SK-OV-3/CDDP cells assessed as inhibition of cell proliferation incubated for 72 hrs by CCK8 assay", "format": "functional, cell-based"}, "MDA-MB-231": {"system": "MDA-MB-231", "test": "Cytotoxicity against human MDA-MB-231 cells assessed as inhibition of cell growth incubated for 72 hrs by CCK8 assay", "format": "functional, cell-based", "conditions": "MDA-MB-231, 72 h"}, "HeLa": {"system": "HeLa", "test": "Cytotoxicity against human HeLa cells assessed as inhibition of cell growth incubated for 72 hrs by CCK8 assay", "format": "functional, cell-based"}, "A-431": {"system": "A-431", "test": "Cytotoxicity against human A-431 cells assessed as inhibition of cell growth incubated for 72 hrs by CCK8 assay", "format": "functional, cell-based", "conditions": "A-431, 72 h"}, "MKN-45": {"system": "MKN-45", "test": "Cytotoxicity against human MKN-45 cells assessed as inhibition of cell growth incubated for 72 hrs by CCK8 assay", "format": "functional, cell-based", "conditions": "MKN-45, 72 h"}, "MIA PaCa-2": {"system": "MIA PaCa-2", "test": "Cytotoxicity against human MIA PaCa-2 cells assessed as inhibition of cell growth incubated for 72 hrs by CCK8 assay", "format": "functional, cell-based", "conditions": "MIA PaCa-2, 72 h"}, "SK-OV-3 [2]": {"system": "SK-OV-3", "test": "Inhibition of tumor sphere formation in agarose-treated human SK-OV-3 cells assessed as fold decrease in number of formed spheres by imaging analysis", "format": "functional"}, "MCF7": {"system": "MCF7", "test": "Cytotoxicity against human MCF7 cells assessed as inhibition of cell growth incubated for 72 hrs by CCK8 assay", "format": "functional, cell-based", "conditions": "MCF7, 72 h"}, "DU-145": {"system": "DU-145", "test": "Cytotoxicity against human DU-145 cells assessed as inhibition of cell growth incubated for 72 hrs by CCK8 assay", "format": "functional, cell-based", "conditions": "DU-145, 72 h"}, "SK-OV-3 [3]": {"system": "SK-OV-3", "test": "Inhibition of cell invasion in human SK-OV-3 cells incubated for 24 hrs by crystal violet staining based transwell invasion assay", "format": "functional", "conditions": "dose 5.0 µM"}, "SK-OV-3 [4]": {"system": "SK-OV-3", "test": "Inhibition of AKT phosphorylation in human SK-OV-3 cells at 5 uM incubated for 24 hrs by Western blot analysis", "format": "cell-based"}, "A2780": {"system": "A2780", "test": "Antitumor activity against CD44 negative human A2780 cells assessed as reduction in cell viability incubated for 72 hrs by CCK8 assay", "format": "functional, cell-based", "conditions": "A2780, 72 h"}, "CAL-27": {"system": "CAL-27", "test": "Cytotoxicity against human CAL-27 cells assessed as inhibition of cell growth incubated for 72 hrs by CCK8 assay", "format": "functional, cell-based", "conditions": "CAL-27, 72 h"}, "HCCLM3": {"system": "HCCLM3", "test": "Cytotoxicity against human HCCLM3 cells assessed as inhibition of cell growth incubated for 72 hrs by CCK8 assay", "format": "functional, cell-based", "conditions": "HCCLM3, 72 h"}, "[5]": {"target": "Vascular endothelial growth factor receptor 2 (Homo sapiens) (UniProt P35968)", "sequence (P35968 whole entry)": "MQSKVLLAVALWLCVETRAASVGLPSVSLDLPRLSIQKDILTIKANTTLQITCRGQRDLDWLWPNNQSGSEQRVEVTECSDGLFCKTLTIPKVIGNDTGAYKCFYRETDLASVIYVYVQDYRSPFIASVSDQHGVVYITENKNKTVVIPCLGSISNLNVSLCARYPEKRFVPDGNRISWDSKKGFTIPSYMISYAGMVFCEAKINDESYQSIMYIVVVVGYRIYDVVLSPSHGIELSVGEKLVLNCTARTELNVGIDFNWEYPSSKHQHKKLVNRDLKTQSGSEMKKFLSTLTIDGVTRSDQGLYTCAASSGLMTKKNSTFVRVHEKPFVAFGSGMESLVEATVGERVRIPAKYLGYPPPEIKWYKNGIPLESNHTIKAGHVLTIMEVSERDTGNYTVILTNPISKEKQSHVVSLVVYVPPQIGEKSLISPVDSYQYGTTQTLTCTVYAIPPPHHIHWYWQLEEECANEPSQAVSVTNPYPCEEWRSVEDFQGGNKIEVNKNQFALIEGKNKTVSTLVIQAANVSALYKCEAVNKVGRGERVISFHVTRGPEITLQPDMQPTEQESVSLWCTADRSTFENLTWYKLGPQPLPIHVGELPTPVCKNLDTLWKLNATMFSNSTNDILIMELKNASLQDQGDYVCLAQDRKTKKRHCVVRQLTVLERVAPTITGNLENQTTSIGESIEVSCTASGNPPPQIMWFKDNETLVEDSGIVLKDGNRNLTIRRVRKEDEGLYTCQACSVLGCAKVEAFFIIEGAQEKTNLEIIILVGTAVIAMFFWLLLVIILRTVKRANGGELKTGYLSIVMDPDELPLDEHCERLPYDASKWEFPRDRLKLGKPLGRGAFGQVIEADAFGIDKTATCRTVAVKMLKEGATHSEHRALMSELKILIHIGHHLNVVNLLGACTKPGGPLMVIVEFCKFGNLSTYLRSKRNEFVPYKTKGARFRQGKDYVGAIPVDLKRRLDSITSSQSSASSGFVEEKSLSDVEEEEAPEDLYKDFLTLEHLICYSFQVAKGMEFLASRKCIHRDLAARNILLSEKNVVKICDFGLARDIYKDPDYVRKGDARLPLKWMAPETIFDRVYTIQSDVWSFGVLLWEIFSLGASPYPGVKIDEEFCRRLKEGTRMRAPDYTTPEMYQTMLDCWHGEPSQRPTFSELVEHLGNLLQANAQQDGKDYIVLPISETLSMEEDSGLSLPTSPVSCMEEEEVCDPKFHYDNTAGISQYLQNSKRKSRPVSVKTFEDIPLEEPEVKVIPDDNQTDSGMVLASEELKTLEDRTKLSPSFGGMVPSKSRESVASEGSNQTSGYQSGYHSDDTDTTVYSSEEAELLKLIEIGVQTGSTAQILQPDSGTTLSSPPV", "test": "Inhibition of VEGFR2 phosphorylation in human SK-OV-3 cells at 5 uM incubated for 24 hrs by Western blot analysis", "format": "cell-based"}, "A549": {"system": "A549", "test": "Cytotoxicity against human A549 cells assessed as inhibition of cell growth incubated for 72 hrs by CCK8 assay", "format": "functional, cell-based", "conditions": "A549, 72 h"}, "ACHN": {"system": "ACHN", "test": "Cytotoxicity against human ACHN cells assessed as inhibition of cell growth incubated for 72 hrs by CCK8 assay", "format": "functional, cell-based"}, "SK-OV-3 [6]": {"system": "SK-OV-3", "test": "Antitumor activity against CD44 positive human SK-OV-3 cells assessed as reduction in cell viability incubated for 72 hrs by CCK8 assay", "format": "functional, cell-based", "conditions": "SK-OV-3, 72 h"}, "SK-OV-3 [7]": {"system": "SK-OV-3", "test": "Inhibition of tumor sphere formation in agarose-treated human SK-OV-3 cells assessed as decrease in number of formed spheres at 10 nM incubated for 9 days by imaging analysis", "format": "functional, cell-based", "conditions": "time 9.0 day"}}, "note": "Calls of active or inactive are those of the source. The calls are words filed in the database; no cut-off is given here."}
{"smiles": "CC[C@@H](C(=O)[O-])C1CC[C@H](C)C([C@@H](C)[C@H](O)[C@H](C)C(=O)[C@H](CC)C2O[C@]3(C=C[C@@H](NC(=O)CCSSc4ccccc4)[C@]4(CC[C@@](C)(C5CC[C@](O)(CC)[C@H](C)O5)O4)O3)[C@H](C)C[C@@H]2C)O1.[Na+]", "note": "(stereo not given in full)", "values": [{"measurement": "inhibition", "setting": "SK-OV-3 [1]", "value": "Active"}, {"measurement": "IC50", "setting": "SK-OV-3/CDDP", "value": 4.45, "unit": "µM"}, {"measurement": "IC50", "setting": "MDA-MB-231", "value": 0.98, "unit": "µM"}, {"measurement": "IC50", "setting": "HeLa", "value": 3.76, "unit": "µM"}, {"measurement": "IC50", "setting": "A-431", "value": 2.95, "unit": "µM"}, {"measurement": "IC50", "setting": "MKN-45", "value": 1.47, "unit": "µM"}, {"measurement": "IC50", "setting": "MIA PaCa-2", "value": 1.14, "unit": "µM"}, {"measurement": "fold change (FC)", "setting": "SK-OV-3 [2]", "value": 4.6}, {"measurement": "IC50", "setting": "MCF7", "value": 8.23, "unit": "µM"}, {"measurement": "IC50", "setting": "DU-145", "value": 30.9, "unit": "µM"}, {"measurement": "inhibition", "setting": "SK-OV-3 [3]", "value": "Dose-Dependent Effect"}, {"measurement": "inhibition", "setting": "SK-OV-3 [4]", "value": "Active"}, {"measurement": "IC50", "setting": "A2780", "value": 0.11, "unit": "µM"}, {"measurement": "IC50", "setting": "CAL-27", "value": 3.73, "unit": "µM"}, {"measurement": "IC50", "setting": "HCCLM3", "value": 1.33, "unit": "µM"}, {"measurement": "inhibition", "setting": "[5]", "value": "Active"}, {"measurement": "IC50", "setting": "A549", "value": 14.4, "unit": "µM"}, {"measurement": "IC50", "setting": "ACHN", "value": 7.37, "unit": "µM"}, {"measurement": "IC50", "setting": "SK-OV-3 [6]", "value": 4.39, "unit": "µM"}]}
{"smiles": "CC(=O)O[C@H]1C(=O)[C@@]2(C)[C@H]([C@H](OC(=O)c3ccccc3)[C@]3(O)C[C@H](OC(=O)[C@H](O)[C@@H](NC(=O)c4ccccc4)c4ccccc4)C(C)=C1C3(C)C)[C@]1(OC(C)=O)CO[C@@H]1C[C@@H]2O", "values": [{"measurement": "inhibition", "setting": "SK-OV-3 [7]", "value": "Active"}]}
